Experimental data published in US20250352555A1, “METHOD OF INCREASING IMMUNE CELL ACTIVATION AND/OR TREATING CANCER USING DIBENZOXAZEPINONES” (VASCULAR THERAPEUTICS PTY LTD, priority 2022, published 2025).

Tests used:
p-ERK (Thr^202/Tyr^204) = assay: Western blotting for p-ERK, A375 melanoma cells; type: cell-based, human; conditions: 10 or 100 nM, 24 h
Procedure: (§1) Western blotting. Cells were treated with compounds and times indicated and total cell lysates were prepared in RIPA buffer. Lysates (10 μg) were resolved by SDS-PAGE and transferred to Immobilon-P polyvinylidene difluoride (PVDF) membranes (Millipore, USA).
Membranes were blocked with 5% skim milk and incubated with rabbit monoclonal anti-c-Jun (Abcam, cat. no. ab32137; mouse, rat and human reactive) antibody, rabbit monoclonal anti-PD-1 (Abcam, cat. no. ab214421) antibody, mouse monoclonal β-actin antibody (Sigma-Aldrich, cat. no. A5316), anti-phospho-SAPK/JNK (Thr^183/Tyr^185) (98F2) (CST, cat. no. 4671) antibody, anti-phospho-p44/42 MAPK (ERK1/2) (Thr^202/Tyr^204) (D13.14.4E) (CST, cat. no. 4370) antibody, anti-phospho-p38 MAPK (Thr^180/Tyr^182) (D3F9) (CST, cat. no. 4511) antibody, anti-SAPK/JNK antibody (CST, cat. no. 9252), anti-p44/42 MAPK (ERK1/2) (137F5) antibody (CST, cat. no. […] Chemiluminescence was detected using the Western Lightning Chemiluminescence system (Thermo Scientific, USA) and ImageQuant™ LAS 4000 biomolecular imager (GE Healthcare Life Sciences, USA). Band intensity in images generated with the LAS 4000 was quantified using NIH Image J.
The effect of BT2 on ERK phosphorylation (p-ERK) was evaluated in human melanoma cells given that MAP kinase activation is key to melanoma progression and the paucity of clinically approved ERK inhibitors. […]

JUN [1] = assay: Western blotting for JUN, MDA-MB-435 cells; type: cell-based, human; conditions: MDA-MB-435 cells (BRAF^V600E), 24 h, dose-dependent
Procedure: as §1
(§2) Membranes were blocked with 5% skim milk and incubated with rabbit monoclonal anti-c-Jun (Abcam, cat. no. ab32137; mouse, rat and human reactive) antibody, rabbit monoclonal anti-PD-1 (Abcam, cat. no. ab214421) antibody, mouse monoclonal β-actin antibody (Sigma-Aldrich, cat. no. A5316), anti-phospho-SAPK/JNK (Thr^183/Tyr^185) (98F2) (CST, cat. no. 4671) antibody, anti-phospho-p44/42 MAPK (ERK1/2) (Thr^202/Tyr^204) (D13.14.4E) (CST, cat. no. 4370) antibody, anti-phospho-p38 MAPK (Thr^180/Tyr^182) (D3F9) (CST, cat. no. 4511) antibody, anti-SAPK/JNK antibody (CST, cat. no. 9252), anti-p44/42 MAPK (ERK1/2) (137F5) antibody (CST, cat. no. 4695), anti-p38 MAPK antibody (CST, cat. no. 9212), anti-DUSP8 antibody (Abcam, cat. no. ab198175) or anti-c-MAF (BLR045F) antibody (Abcam, cat. no. ab243901). […] Chemiluminescence was detected using the Western Lightning Chemiluminescence system (Thermo Scientific, USA) and ImageQuant™ LAS 4000 biomolecular imager (GE Healthcare Life Sciences, USA). Band intensity in images generated with the LAS 4000 was quantified using NIH Image J. […]

JUN [2] = assay: Western blotting time course for JUN, Jurkat T cells; type: cell-based, human; conditions: Western blot time course
Procedure: as §1, §2

p-JNK = assay: Western blotting time course for p-JNK, Jurkat T cells; type: cell-based, human; conditions: Western blot time course
Procedure: as §1, §2

total ERK = assay: Immunohistochemistry of MDA-MB-435 tumors, total ERK; type: in vivo, mouse; conditions: SCID mice, 20 mg/kg i.t.
Excerpt: Immunohistochemical staining and analyses. Rabbit monoclonal anti-CD3 (cat. no. ab16669; mouse, rat and human reactive), rabbit monoclonal anti-PD-1 (cat. no. ab214421), rabbit monoclonal anti-CD68 (cat. no. ab125212) antibodies were obtained from Abcam, rabbit monoclonal anti-phospho-ERK (Thr^202/Tyr^204) (cat. no. CST4370), rabbit monoclonal total ERK (cat. no. CST4695), antibodies were obtained from Cell Signaling Technology. Rabbit polyclonal anti-PD-L1 (cat. no. PA5-20343) antibody was obtained from ThermoFisher.
Formalin fixed, paraffin embedded sections were prepared from tumors. Heat-induced epitope retrieval was applied to all deparaffinized sections (4 μm sections on Superfrost slides) with citrate buffer, pH 6.0 for 5 min at 110° C. Sections were blocked with Dual Endogenous Enzyme Block (DAKO, S2003) for 10 min and then with 2% skim milk for 20 min. Slides were incubated with primary antibody for 60 min at room temperature or overnight at 4° C. and then for 10 min with probe of MACH3 Rabbit AP-Polymer Detection solution (Biocare Medical, M3R533 G, H, L). […] Integrated optical density (IOD) or area of positive staining (red chromagen) was assessed using Image-Pro Plus software (Cybernetics, Bethesda, MD, USA). Positive staining was the average of quantitation in 4-8 fields of view under 20× or 40× objectives.

MeWo cells = assay: Apoptosis, flow cytometry with Annexin V-FITC, MeWo; type: cell-based, human; conditions: 1 μM, 24 h
Procedure: Flow cytometry with Annexin V-FITC. Cells were seeded into 6 well plates in normal culture medium containing 10% FBS. After culturing overnight, the cells were incubated in complete medium containing vehicle, BT2 or SCH772984 at 1 μM and left for 24 h. The culture medium was removed and the cells were washed with PBS. Accutase (Stem Cell Technologies, cat. no. 07920) was used to detach the cells. The cells were then washed and centrifuged at 300 g for 5 min and resuspended at 1×10^6 cells/ml in 500 μl of 1× binding buffer (Annexin V-FITC Apoptosis Staining/Detection Kit, Abcam, cat. no. ab14085). The cells were transferred to 12×75 mm tubes and annexin V-FITC/propidium iodide (PI) was added and incubated for 5 min at 22° C. protected from light. Stained cell suspensions were analyzed by flow cytometry using a BD LSRFortessa X20.
The morphology of A375 and MeWo cells exposed to 1 μM of BT2 or SCH772984 for 24 h was also assessed.

CCOC(=O)Nc1ccc2c(c1)C(=O)N(CC)c1ccccc1O2 [BT2, (10-ethyl-11-oxo-10,11-dihydro-dibenzo[b,f][1,4]oxazepin-2-yl)-carbamic acid ethyl ester]
ERK phosphorylation (p-ERK, Western blot) (p-ERK (Thr^202/Tyr^204)): suppressed ERK phosphorylation
JUN expression (Western blot) (JUN [1]): increased
time to induction of JUN at the protein level (JUN [2]): 2 to 4 h
time to stimulation of JNK phosphorylation (p-JNK): ≤ 1 h
total ERK levels in the tumors (IHC) (total ERK): no effect on total ERK levels
apoptosis (Annexin V-FITC+ PI−) (MeWo cells): increased apoptosis
